# “And” between values parts separate entries of the source, which are not always exact repeats. Identical values can stand only once.
# Test: Compared solubility in water
# Format: physicochemical
# Details: for B = solubility in water of O-β-D-Glcp-(1→-phenolic compound) / solubility: water saturated solution; for B = solubility in water of O-β-D-Glcp-(1→-phenolic compound) / solubility / A = solubility in water of [6)-O-α-D-Glcp-(1→]1-6-O-β-D-Glcp-(1→-phenolic compound: pH 4.0 to 5.0, no buffer added, 25° C.; for solubility: thermodynamic from solid, read-out: B = solubility in water of O-β-D-Glcp-(1→-phenolic compound); for % of solubility increase = (A − B)/B × 100: versus corresponding O-β-D-Glcp-(1→-phenolic compound); for A = solubility in water of [6)-O-α-D-Glcp-(1→]1-6-O-β-D-Glcp-(1→-phenolic compound: minimal solubility from concentrated syrup
# Text: The phenolic compounds derivatives of the present invention have an improved solubility in water of at least 50% to 5000% as compared to the corresponding 0-β-D-Glcp-(14)-phenolic compound in the same physiological conditions, more preferably at least 50%, 100%, 200%, 400%, 800%, 1000%, 2000%, 3000%, 4000% or 5000%. Solubility of a phenolic compound derivative can be estimated by preparing a saturated water solution of said phenolic compound derivative. Excess solid form of phenolic compound derivative is eliminated by high speed centrifugation and concentration of compound A in the supernatant is estimated by HPLC using appropriate references (see above §‘Prepation of derivative’ for HPLC conditions example). Solubility difference is calculated with formula: […]
# For this purpose, these [6)-O-α-D-Glcp-(1→]n-6-O-β-D-Glcp-(1→-phenolic derivatives have been prepared as described in example 1, and concentrated as described in EP2007/055815. The resulting concentrated syrup obtained after purification of these [6)-O-α-D-Glcp-(1→]1-6-O-β-D-Glcp-(1→-phenolic derivatives has been diluted and analyzed by HPLC to estimate the content of soluble [6)-O-α-D-Glcp-(1→]1-6-O-β-D-Glcp-(1→-phenolic derivatives.
# In parallel, an excess amount of each corresponding β-D-Glcp-(1→-phenolic derivatives has been diluted in water to enable the preparation of water saturated solutions of these compounds. After high speed centrifugation to remove the excess of solid material, the supernatant of these saturated solutions has been analyzed by HPLC to estimate the content of soluble O-β-D-Glcp-(1→-phenolic derivatives.
# Nota: One should notice that solubility of the [6)-O-α-D-Glcp-(1→]1-6-O-(3-D-Glcp-(1→-phenolic derivatives is considered as a minimal solubility as concentration of the initial syrups have not been tested.
Compound,solubility,% of solubility increase = (A − B)/B × 100 (In g/L),% of solubility increase = (A − B)/B × 100 (In mM),A = solubility in water of [6)-O-α-D-Glcp-(1→]1-6-O-β-D-Glcp-(1→-phenolic compound,B = solubility in water of O-β-D-Glcp-(1→-phenolic compound)
"COc1ccc(/C=C/c2cc(O)cc(O[C@@H]3O[C@H](CO)[C@@H](O)[C@H](O)[C@H]3O)c2)cc1 [Deoxyrhapontin, 3,5-dihydroxy-4′-methoxystilbene-3-O-β-D-glucopyranoside, reference compound]",–,–,–,–,0.3 g/L and 0.7 mM
"OC[C@H]1O[C@@H](Oc2cc(O)cc(C=Cc3ccc(O)cc3)c2)[C@H](O)[C@@H](O)[C@@H]1O [O-β-D-Glcp-(1→-resveratrol, Resveratrol-3-O-β-D-glucopyranoside, reference compound]",1200 µg/mL and 3100 µM,–,–,–,–
"COc1ccc(C=Cc2cc(O)cc(O[C@@H]3O[C@H](CO)[C@@H](O)[C@H](O)[C@H]3O)c2)cc1O [Rhapontin, 4′-methoxy-3,3′,5-stilbenetriol-3-O-β-D-glucopyranoside, reference compound]",300 µg/mL and 700 µM,–,–,–,–
"COc1ccc(C=Cc2cc(O)cc(O[C@@H]3O[C@H](CO[C@H]4O[C@H](CO)[C@@H](O)[C@H](O)[C@H]4O)[C@@H](O)[C@H](O)[C@H]3O)c2)cc1 [[6)-O-α-D-Glcp-(1→]1-6-O^3-β-D-Glcp-(1→-3,5-dihydroxy-4′-methoxystilbene]",–,Higher than 2700%,Higher than 2000%,> 8.5 g/L and > 15.0 mM,–
O=c1ccc2cc(O[C@@H]3O[C@H](CO[C@H]4O[C@H](CO)[C@@H](O)[C@H](O)[C@H]4O)[C@@H](O)[C@H](O)[C@H]3O)c(O)cc2o1 [[6)-O-α-D-Glcp-(1→]1-6-O^6-β-D-Glcp-(1→-esculetin],–,Higher than 850%,Higher than 550%,> 12.5 g/L and > 24.9 mM,–
"Esculetin-6-O-β-D-glucopyranoside [Esculin, reference compound]",–,–,–,–,1.3 g/L and 3.8 mM

# Continued, in another order:
solubility,% of solubility increase = (A − B)/B × 100 (In g/L),% of solubility increase = (A − B)/B × 100 (In mM),A = solubility in water of [6)-O-α-D-Glcp-(1→]1-6-O-β-D-Glcp-(1→-phenolic compound,Compound,B = solubility in water of O-β-D-Glcp-(1→-phenolic compound)
1100 µg/mL and 2500 µM,–,–,–,"O=C(CCc1ccc(O)cc1)c1c(O)cc(O)cc1O[C@@H]1O[C@H](CO)[C@@H](O)[C@H](O)[C@H]1O [Phloridzin, Phloretin-2′-O-β-D-glucopyranoside, reference compound]",–
–,Higher than 4750%,Higher than 3450%,> 53.3 g/L and > 89.1 mM,O=C(CCc1ccc(O)cc1)c1c(O)cc(O)cc1O[C@@H]1O[C@H](CO[C@H]2O[C@H](CO)[C@@H](O)[C@H](O)[C@H]2O)[C@@H](O)[C@H](O)[C@H]1O [[6)-O-α-D-Glcp-(1→]1-6-O^2′-β-D-Glcp-(1→-phloretin],–
–,Higher than 5400%,Higher than 3950%,> 16.6 g/L and > 28.5 mM,"COc1ccc(C=Cc2cc(O)cc(O[C@@H]3O[C@H](CO[C@H]4O[C@H](CO)[C@@H](O)[C@H](O)[C@H]4O)[C@@H](O)[C@H](O)[C@H]3O)c2)cc1O [[6)-O-α-D-Glcp-(1→]1-6-O^3-β-D-Glcp-(1→-4′-methoxy-3,3′,5-stilbenetriol]",–
–,Higher than 5300%,Higher than 3650%,> 65.0 g/L and > 117.6 mM,OC[C@H]1O[C@H](OC[C@H]2O[C@@H](Oc3cc(O)cc(/C=C/c4ccc(O)cc4)c3)[C@H](O)[C@@H](O)[C@@H]2O)[C@H](O)[C@@H](O)[C@@H]1O [[6)-O-α-D-Glcp-(1→]1-6-O^3-β-D-Glcp-(1→-resveratrol],–
